Results reported in patent publication US20120077828A1, “CHEMICAL COMPOUNDS” (priority 2010, published 2012).

Target: T1, PERK (Homo sapiens, UniProt Q9NZJ5)
T1 construct: GST-PERK (536-1116) cytoplasmic domain was purchased from Invitrogen; purchased Invitrogen PV5106
T1 sequence (Q9NZJ5 536-1116): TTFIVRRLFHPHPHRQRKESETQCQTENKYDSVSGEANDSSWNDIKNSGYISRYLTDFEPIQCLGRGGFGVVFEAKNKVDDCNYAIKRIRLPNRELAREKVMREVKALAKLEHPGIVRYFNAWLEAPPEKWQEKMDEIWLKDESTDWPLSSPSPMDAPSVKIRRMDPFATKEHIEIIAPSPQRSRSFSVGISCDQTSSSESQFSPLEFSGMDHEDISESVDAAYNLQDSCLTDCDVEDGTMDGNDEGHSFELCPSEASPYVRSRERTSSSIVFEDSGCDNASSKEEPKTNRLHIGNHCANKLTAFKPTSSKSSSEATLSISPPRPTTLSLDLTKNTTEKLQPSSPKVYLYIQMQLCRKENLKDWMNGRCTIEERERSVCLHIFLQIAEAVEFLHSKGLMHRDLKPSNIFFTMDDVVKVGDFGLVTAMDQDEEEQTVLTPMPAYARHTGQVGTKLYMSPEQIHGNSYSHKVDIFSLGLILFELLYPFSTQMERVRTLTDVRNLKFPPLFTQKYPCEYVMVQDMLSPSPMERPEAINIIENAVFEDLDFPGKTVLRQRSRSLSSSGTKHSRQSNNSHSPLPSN
Assay: PKR-like Endoplasmic Reticulum Kinase (PERK) Assay (HTRF Format)
Format: biochemical
Details: average, in at least one set of experimental runs; read-out: average pIC50 value against PERK (converted)
Method: PKR-like Endoplasmic Reticulum Kinase (PERK) Assay (HTRF Format)
Source of substrate: elF2α: 6-His-Full-length human elF2α is purified from baculovirus expression in Sf9 insect cells. The elF2 protein is buffer exchanged by dialysis into PBS, chemically modified by NHS-LC-Biotin and then buffer exchanged by dialysis into 50 mm TRIS pH 7.2/250 mM NaCl/5 mM DTT. Protein is aliquoted and stored at −80° C.
Assays were performed by adding GST-PERK solution to assay plates containing compounds and pre-incubated for 30 minutes at room temperature. The reaction is initiated by the addition of ATP and EIF2α substrate solution. Quench solution is added following a one hour incubation at room temperature. The plates are covered for 2 hours at room temperature prior to determination of signal. The resulting signal is quantified on a Viewlux Reader (PerkinElmer). The APC Signal is normalized to the Europium signal by transforming the data through an APC/Eu calculation.
Compounds under analysis were dissolved in DMSO to 1.0 mM and serially diluted 1 to 3 with DMSO through eleven dilutions. 0.1 μl of each concentration was transferred to the corresponding well of an assay plate. This creates a final compound concentration range from 0.00017 to 10 μM.
The data for concentration response curves were plotted as % Inhibition calculated with the data reduction formula 100*(1−(U1−C2)/(C1−C2)) versus concentration of compound where U is the unknown value, C1 is the average control value obtained for 1% DMSO, and C2 is the average control value obtained for 0.1 M EDTA. Data were fitted with a curve described by:
where A is the minimum y, B is the maximum y concentration [M], D is the slope factor, and x is the log10 of the compound.
In the above data, pIC50 is defined as −log(IC50) where the IC50 value is expressed in molar units.

Row | IC50 [nM] | SMILES
1 | ≤ 2.51 | NCCc1cnc(N)c2c(-c3ccc4c(c3F)CCN4C(=O)Cc3cc(F)ccc3F)coc12 [Example 146, 7-(2-aminoethyl)-3-{1-[(2,5-difluorophenyl)acetyl]-4-fluoro-2,3-dihydro-1H-indol-5-yl}furo[3,2-c]pyridin-4-amine]
2 | ≤ 0.316 | Nc1ncnc2[nH]cc(-c3ccc4c(c3)CCN4C(=O)Cc3cccc(C(F)(F)F)c3)c12 [Example 148, 5-(1-{[3-(trifluoromethyl)phenyl]acetyl}-2,3-dihydro-1H-indol-5-yl)-1H-pyrrolo[2,3-d]pyrimidin-4-amine]
